Read-outs that look alike come from different tables or passages of the source.
Legend:
[1] = pharmacokinetics of prucalopride in plasma after single oral administration to beagle dogs; assay type: in vivo; conditions: for Cmax / Tmax: dog, plasma, po, 2.5 mg/kg; for Cmax: read-out: Cmax peak plasma concentration of prucalopride; for Tmax: read-out: Tmax time to reach the peak plasma concentration of prucalopride
Description: Two male beagle dogs were dosed orally with 1 ml of a test formulation comprising 2.5 mg/kg of 4-amino-5-chloro-2,3-dihydro-N-[1-(3-methoxypropyl)-4-piperidinyl]-7-benzofuran-carboxamide (“prucalopride”).
After a wash-out period of four weeks, the same two dogs were dosed orally with 1 ml of a test formulation comprising 2.61 mg/kg of compound (1).
Blood samples were taken via the jugular vein immediately before dosing (blank sample) and at 0.25 h, 0.5 h, 1 h, 1.5 h, 2 h, 4 h, 6 h, 8 h, and 24 h after dosing. Aliquots of 10 ml were collected in EDTA tubes. Immediately after collection of the blood samples, plasma samples were prepared by centrifugation at approximately 1700×g for approximately 10 minutes.
Concentrations of prucalopride in the plasma samples were determined by LC/MS/MS. The quantification limit for prucalopride was 5.0 ng/ml.
Based on the individual plasma concentration-time data, using the actual sampling times, the following pharmacokinetic parameters were determined for prucalopride after oral administration of prucalopride and compound (1) and summarized in Table 1. • Cmax peak plasma concentration, determined by visual inspection of the data • Tmax time to reach the peak plasma concentration, determined by visual inspection of the data. • AUC0-∞ area under the plasma concentration-time extrapolated to infinity

[2] = target: 5-HT4 receptors (Homo sapiens, UniProt Q13639); conditions: in words; cited from earlier work
[3] = target: 5-HT2A receptors (Homo sapiens, UniProt P28223); conditions: in words; cited from earlier work
[4] = target: T1, 5-HT3A receptors (Homo sapiens, UniProt P46098); conditions: in words; cited from earlier work
T1 sequence (P46098 24-478): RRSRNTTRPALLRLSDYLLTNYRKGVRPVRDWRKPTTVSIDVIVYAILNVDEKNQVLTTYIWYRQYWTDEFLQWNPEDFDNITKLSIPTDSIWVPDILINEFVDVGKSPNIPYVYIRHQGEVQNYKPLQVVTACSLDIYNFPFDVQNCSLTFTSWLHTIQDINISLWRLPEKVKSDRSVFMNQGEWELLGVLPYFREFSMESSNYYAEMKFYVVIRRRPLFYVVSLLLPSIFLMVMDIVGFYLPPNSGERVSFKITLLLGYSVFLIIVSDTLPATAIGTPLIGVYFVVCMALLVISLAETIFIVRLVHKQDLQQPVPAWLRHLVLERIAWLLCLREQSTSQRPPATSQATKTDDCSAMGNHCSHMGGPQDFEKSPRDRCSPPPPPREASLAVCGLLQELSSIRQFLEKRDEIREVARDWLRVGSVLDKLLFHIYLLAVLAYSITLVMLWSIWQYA

[5] = tested on: colon; conditions: in words, cited from earlier work
[6] = male, beagle, Dog 1, oral administration of prucalopride 2.5 mg/kg, prucalopride measured in plasma
[7] = male, beagle, Dog 2, oral administration of prucalopride 2.5 mg/kg, prucalopride measured in plasma
[8] = Dog 1, oral administration of compound (1) 2.61 mg/kg, prucalopride measured in plasma
[9] = Dog 2, oral administration of compound (1) 2.61 mg/kg, prucalopride measured in plasma
[10] = oral administration, dogs, in words

5-HT4 receptors, sequence (Q13639 whole entry): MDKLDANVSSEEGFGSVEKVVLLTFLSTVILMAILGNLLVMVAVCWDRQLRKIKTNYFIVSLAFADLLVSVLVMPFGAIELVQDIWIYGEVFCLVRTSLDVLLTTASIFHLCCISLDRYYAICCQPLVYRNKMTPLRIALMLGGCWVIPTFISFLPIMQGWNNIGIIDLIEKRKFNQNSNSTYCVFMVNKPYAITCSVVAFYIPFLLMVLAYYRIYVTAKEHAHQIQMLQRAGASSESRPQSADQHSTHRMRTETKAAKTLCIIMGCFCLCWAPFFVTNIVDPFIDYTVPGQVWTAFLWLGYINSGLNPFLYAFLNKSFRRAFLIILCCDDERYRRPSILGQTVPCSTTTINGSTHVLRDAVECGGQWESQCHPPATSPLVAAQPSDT
5-HT2A receptors, sequence (P28223 whole entry): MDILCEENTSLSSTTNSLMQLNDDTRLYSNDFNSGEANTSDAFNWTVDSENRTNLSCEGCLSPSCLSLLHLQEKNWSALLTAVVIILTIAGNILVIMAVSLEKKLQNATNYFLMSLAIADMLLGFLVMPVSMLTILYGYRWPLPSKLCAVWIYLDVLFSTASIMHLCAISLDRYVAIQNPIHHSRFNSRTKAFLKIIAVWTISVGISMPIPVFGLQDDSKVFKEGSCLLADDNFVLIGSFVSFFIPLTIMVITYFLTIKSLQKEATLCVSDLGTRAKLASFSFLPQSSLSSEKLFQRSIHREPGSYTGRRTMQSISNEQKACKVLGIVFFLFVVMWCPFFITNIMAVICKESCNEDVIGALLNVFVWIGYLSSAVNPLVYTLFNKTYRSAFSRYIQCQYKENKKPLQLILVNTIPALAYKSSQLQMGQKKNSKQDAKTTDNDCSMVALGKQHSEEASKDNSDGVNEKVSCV

AUC0-∞ area under the plasma concentration-time extrapolated to infinity, prucalopride ([1]; Dog 2, oral administration of prucalopride 2.5 mg/kg, prucalopride measured in plasma) [ng·h/mL] | Cmax [1, 6] [ng/mL] | Tmax [1, 6] [h] | Cmax [1, 7] [ng/mL] | Tmax [1, 7] [h] | AUC(0-inf) ([1]; male, beagle, Dog 1, oral administration of prucalopride 2.5 mg/kg, prucalopride measured in plasma, read-out: AUC0-∞ area under the plasma concentration-time extrapolated to infinity, prucalopride) [ng·h/mL] | AUC0-∞ area under the plasma concentration-time extrapolated to infinity, prucalopride [1, 8] [ng·h/mL] | Cmax peak plasma concentration of prucalopride [1, 8] [ng/mL] | Tmax time to reach the peak plasma concentration of prucalopride [1, 8] [h] | AUC0-∞ area under the plasma concentration-time extrapolated to infinity, prucalopride [1, 9] [ng·h/mL] | Cmax peak plasma concentration of prucalopride [1, 9] [ng/mL] | Tmax time to reach the peak plasma concentration of prucalopride [1, 9] [h] | peak plasma concentration Cmax of prucalopride, compared with oral prucalopride [1, 10] | systemic exposure to prucalopride, compared with oral prucalopride itself [1, 10] | SMILES | agonism of 5-HT4 receptors [2] | affinity for 5-HT2A receptors [3] | affinity for 5-HT3A receptors [4] | colonic motility and defecation ([5]; animals) | giant contractions in the colon ([5]; propagated over the length of the colon as a peristaltic wave)
4372 | 556 | 1 | 660 | 0.5 | 4230 | – | – | – | – | – | – | – | – | COCCCN1CCC(NC(=O)c2cc(Cl)c(N)c3c2OCC3)CC1 [prucalopride, 4-amino-5-chloro-2,3-dihydro-N-[1-(3-methoxypropyl)-4-piperidinyl]-7-benzofuran-carboxamide] | potent and selective agonist | no affinity | no affinity | stimulates colonic motility and defecation | induces giant contractions in the colon
– | – | – | – | – | – | 2265 | 222 | 2.0 | 4093 | 488 | 2.0 | lower | substantially lower | COCCC[N@+]1([O-])CC[C@@H](NC(=O)c2cc(Cl)c(N)c3c2OCC3)CC1.O [compound (1), cis-4-amino-5-chloro-2,3-dihydro-N-[1-(3-methoxypropyl)-4-piperidinyl]-7-benzofurancarboxamide, N-oxide monohydrate] | – | – | – | – | –
